Converted amounts (≈) assume the structure as drawn.

One assay deals with superoxide radicals (O2^-) released from the peritoneal macrophage cells of guinea pig. The assay is described as follows: Inhibitory effect against superoxide radicals (O2^-) released from the peritoneal macrophage cells of guinea pig by stimulation. It is filed as cell-based. The settings on record: Cavia porcellus, Peritoneal macrophage cell; guinea pig peritoneal macrophages 2×10^6 cells/ml; FMLP 10^-7 M; cytochrome C reduction, OD550; 37° C.; read-out: 50% inhibitory concentration (IC50), superoxide radical release. The method, then: Inhibitory effect against superoxide radicals (O2^-) released from the peritoneal macrophage cells of guinea pig by stimulation
Mineral oil (15 ml) was intraperitoneally administered to a guinea pig, then 96 hours after the administration, the peritoneal macrophage cells were samples.
Superoxide redicals (O2^-) were determined by means of reduction of cytochrome C method according to the procedure described in an article by T. Matsumoto, K. Takeshige and S. Minakami: Biochemical and Biophysical Research Communications, Vol. 88, No. 3, pp. 974-979, (1979).
The peritoneal macrophage cells were added to make the final concentration of 2×10^6 cells/ml into 1 ml of 80 μM-cytochome C solution, and the test compound of indole derivative of the present invention was added thereto to make the test group sample. On the other hand, water was added in place of the indole derivative of the present invention to make the control group sample. Each of the test group sample and the control group sample was subjected to pure incubaiton at 37° C. for 1 minute.
As to the stimulating agent for releasing superoxide radicals (O2^-), FMLP (formylmethionyl leucyl phenylalanine) was added to make the final concentration thereof to 10^-7 M, to each of the test group sample and the control group sample. Then both samples were subjected to additional reaction by incubation for 1 minute.
Difference of the optical absorbances measured at 550 nm (OD550) of both test group and control group samples were determined, and the 50% inhibitory concentration (IC50) was obtained by calculating as the ratio of OD550 of the test group sample to that of the control group sample.
Consider `CC(C)C[C@@H]1C(=O)N(C)[C@@H](Cc2c[nH]c3ccccc23)C(=O)N1O` [Compound E-72a, (3S,6R)-1-Hydroxy-3-(indol-3-yl)methyl-6-isobutyl-4-methylpiperazine-2,5-dione], for which the IC50 turned out to be 0.8 µg/mL (≈ 2.43 µM).

In the case of `CC(C)C[C@@H]1C(=O)N(C)[C@@H](Cc2cn(C)c3ccccc23)C(=O)N1O` [Compound E-73a, (3S,6R)-1-Hydroxy-6-isobutyl-4-methyl-3-[(1-methyl)indol-3-yl]methylpiperazine-2,5-dione], the IC50 turned out to be 2 µg/mL (≈ 5.82 µM).

Another assay relates to releasing of lysosome from the neutrocytes of rat. The assay is described as follows: Inhibitory effect against the releasing of lysosome from the neutrocytes of rat. In kind it is cell-based. The settings on record: 0.25 h; rat neutrocytes 5×10^5 cells/ml; FMLP 10^-6 M + cytochalasin B 5 μg/ml; 15 minutes; OD550; read-out: 50% inhibitory concentration (IC50), releasing of lysosome. The method, then:
Inhibitory effect against the releasing of lysosome from the neutrocytes of rat
The neutrocytes of rat were samples from the abdominal cavity of the reat 16 hours after the administration of 10 ml of 1%-casein solution (physiological saline solution).
Reaction of the releasing of lysosome from the neutrocytes of rat was determined by means of the method described in an article by T. Matsumoto, K. Takeshige and S. Minakami: Biochemical and Biophysical Research Communications, Vol. 88, No. 3, pp. 974-979, (1979).
The neutrocytes being sampled were added to Hank's soluiton so as to make the concentraiton thereof as 5×10^5 cells/ml, and the test compound of indole derivative of the present invention was added thereto to make the test group sample. On the other hand, water was added in place of the indole derivative of the present invention to make the control group sample. Each of the test group sample and the control group sample was subjected to pre-incubation at 37° C. for 1 minute.
As to the stimulating agents, 10^-6 M of FMLP (formylmethionyl leucyl phenylalanine) and 5 μg/ml of cytochalasin B were added to the solution. Thus, obtained mixture of the solution was reacted by incubating for 15 minutes. After the incubation, the mixture of the solution was subjected to centrifugation at 2,000 rpm for 10 minutes. The supernatant (0.2 ml) was admixed with 0.5 ml of 0.1M-acetic acid buffer solution (pH 4.5) in which 0.2 mM of phenolphthalein glucuronic acid was dissolved. Then the resulting mixture of the solutions was reacted at 37° C. for 5 hours by incubation. After the reaction, 1N-NaOH solution was added to the reaction mixture so as to make the pH thereof to pH 8-9, and the optical absorbance of both test group samples and control group samples were determined at 550 nm (OD550).
The 50% inhibitory concentration (IC50) values were obtained by calculating as the ratio of OD550 of the test group samples to that of the control group samples.
As for `CN1C(=O)C(c2ccccc2)NC(=O)/C1=C/c1c[nH]c2ccccc12` (centres unmarked) [Compound A-4a, (Z)-6-(indol-3-yl)methylidene-1-methyl-3-phenylpiperazine-2,5-dione], the IC50 stood at 35 µg/mL. For `CC(C)C[C@@H]1NC(=O)/C(=C/c2c[nH]c3ccccc23)N(C)C1=O` [Compound A-4b, (3S,Z)-6-(Indol-3-yl)methylidene-3-isobutyl-1-methylpiperazine-2,5-dione], the IC50 worked out at 30 µg/mL. Still for that read-out and setting: in the case of `COC1=N[C@@H](CC(C)C)C(=O)N(C)/C1=C\c1c[nH]c2ccccc12` [Compound A-5b, (3S,Z)-6-(Indol-3-yl)methylidene-3-isobutyl-5-methoxy-1-methyl-1,2,3,6-tetrahydropyrazin-2-one] it was 25 µg/mL; in that of `COc1nc(-c2ccccc2)c(=O)n(C)c1Cc1c[nH]c2ccccc12` [Compound A-6a, 6-(indol-3-yl)methyl-5-methoxy-1-methyl-3-phenyl-1,2-dihydropyrazin-2-one], 30 µg/mL; in that of `COc1nc(CC(C)C)c(=O)n(C)c1Cc1c[nH]c2ccccc12` [Compound A-6b, 6-(Indol-3-yl)methyl-3-isobutyl-5-methoxy-1-methyl-1,2-dihydropyrazin-2-one], 30 µg/mL. Consider `COc1nc(CC(C)C)c(OC)nc1Cc1c[nH]c2ccccc12` [Compound A-19, 3-(Indol-3-yl)methyl-6-isobutyl-2,5-dimethoxypyrazine], for which the IC50 turned out to be 25 µg/mL. On to `COc1nc(CC(C)C)c(OC(C)=O)nc1Cc1c[nH]c2ccccc12` [Compound A-20, 2-Acetoxy-6-(indol-3-yl)methyl-3-isobutyl-5-methoxypyrazine], for which the IC50 stood at 20 µg/mL. For the compound `CCOc1nc(CC(C)C)c(OCC)nc1Cc1c[nH]c2ccccc12` [Compound A-23, 3-(Indol-3-yl)methyl-2,5-diethoxy-6-isobutylpyrazine], the IC50 worked out at 50 µg/mL. On the same count and under the same terms, in the case of `CC(C)Cc1nc(Cl)c(Cc2c[nH]c3ccccc23)nc1Cl` [Compound A-26, 3-(Indol-3-yl)methyl-2,5-dichloro-6-isobutylpyrazine] it was 10 µg/mL; in that of `CC(C)Cc1cnc(Cc2c[nH]c3ccccc23)cn1` [Compound A-27, 2-(indol-3-yl)methyl-5-isobutylpyrazine], 25 µg/mL; in that of `O=C1CN(O)C(=O)[C@H](Cc2c[nH]c3ccccc23)N1` [Compound A-29c, (3S)-1-Hydroxy-3-(indol-3-yl)methylpiperazine-2,5-dione], 50 µg/mL.

Turning to `CC(C)/C=c1\[nH]c(=O)/c(=C/c2c[nH]c3ccccc23)[nH]c1=O` [Compound A-34, (Z,Z)-3-(indol-3-yl)methylidene-6-isobutylidenepiperazine-2,5-dione], the IC50 is 50 µg/mL. On to `CC(C)C[C@H]1C(=O)N[C@@H](Cc2c[nH]c3ccccc23)C(=O)N1OCc1ccccc1` [Compound A-35d, (3S,6S)-1-Benzyloxy-3-(indol-3-yl)methyl-6-isobutyl-piperazine-2,5-dione], for which the IC50 was found to be 50 µg/mL. Still for that read-out and setting: in the case of `COn1c(CC(C)C)c(Cl)nc(Cc2c[nH]c3ccccc23)c1=O` [Compound A-45, 5-chloro-3-(indol-3-yl)methyl-6-isobutyl-1-methoxy-1,2-dihydropyrazin-2-one] it was 20 µg/mL.

Consider `COC(=O)n1cc(Cc2nc(Cl)c(CC(C)C)[n+]([O-])c2OC)c2ccccc21` [Compound A-48, 3-Chloro-2-isobutyl-5-[(1-methoxycarbonyl)indol-3-yl]methyl-6-methoxypyrazineyl-oxide], for which the IC50 stood at 50 µg/mL. Take `COn1c(C)c(C)nc(Cc2c[nH]c3ccccc23)c1=O` [Compound A-53, 3-(Indol-3-yl)methyl-1-methoxy-5,6-dimethyl-1,2-dihydropyrazin-2-one]: the IC50 came out at 43 µg/mL.

For `COc1c(Cc2c[nH]c3ccccc23)n(C)c(=O)c(CC(C)C)[n+]1[O-]` [Compound A-59, 6-(indol-3-yl)methyl-3-isobutyl-5-methoxy-1-methyl-1,2-dihydropyrazin-2-one 4-oxide], the IC50 is 20 µg/mL. Take `COc1nc(Cc2c[nH]c3ccccc23)c(OC)[n+]([O-])c1CC(C)C` [Compound A-60, 3-(indol-3-yl)methyl-6-isobutyl-2,5-dimethoxypyrazine 1-oxide]: the IC50 worked out at 20 µg/mL.

With `CC(C)Cc1c(=O)[nH]c(Cc2c[nH]c3ccccc23)c[n+]1[O-]` [Compound A-84, 6-(indol-3-yl)methyl-3-isobutyl-1,2-dihydropyrazin-2-one 4-oxide], the IC50 turned out to be 50 µg/mL. With `COc1c(Cc2c(-c3ccccc3)[nH]c3ccccc23)[nH]c(=O)c(CC(C)C)[n+]1[O-]` [Compound E-34g, 3-Isobutyl-5-methoxy-6-[(2-phenyl)indol-3-yl]methyl-1,2-dihydropyrazin-2-one 4-oxide], the IC50 amounted to 8 µg/mL. In the case of `COc1c(Cn2ccc3cc(C#N)ccc32)[nH]c(=O)c(CC(C)C)[n+]1[O-]` [Compound E-36o, 6-[(5-cyano)indol-1-yl]methyl-3-isobutyl-5-methoxy-1,2-dihydropyrazin-2-one4-oxide], the IC50 came to 12 µg/mL. Still for that read-out and setting: in the case of `COc1c(CC2C(=O)Nc3ccccc32)[nH]c(=O)c(CC(C)C)[n+]1[O-]` (centres unmarked) [Compound E-39, 2-Isobutyl-5-methxoy-6-(oxindol-3-yl)methyl-1,2-dihydropyrazin-2-one 4-oxide] it was 50 µg/mL. For `COc1c(Cc2c[nH]c3ccccc23)nc(OC(C)=O)c(CC(C)C)[n+]1[O-]` [Compound E-65, 3-Acetoxy-5-(indol-3-yl)methyl-2-isobutyl-6-methoxypyrazine 1-oxide], the IC50 was 9 µg/mL.

The same assay, now with this note: rat neutrocytes 5×10^5 cells/ml; FMLP 10^-6 M + cytochalasin B 5 μg/ml; 15 minutes; OD550.
Consider “6-(indol-3-yl)methyl-2-isobutyl-5-methyl-1,2-dihydropyrazin-3-one 4-oxide [Compound A-82a]”, for which the “50% inhibitory concentration (IC50), releasing of lysosome” value was determined as 20 µg/mL.

The values are drawn from patent US5238938A, “Indole derivatives” (Otsuka Pharmaceutical Co., Ltd., priority 1989, dated 1993).
